Laboratory results as given in the CheMixHub viscosity set.
± gives the uncertainty stated by the source.

Test: xn = mol fraction of the nth substance listed

OCCO + O
Conditions	viscosity [mPa·s]
303.15 K, 101.33 kPa, x1 = 0.5873	7.264 ± 0.08
303.15 K, 101.33 kPa, x1 = 0.6734	8.539 ± 0.092
303.15 K, 101.33 kPa, x1 = 0.7944	10.39 ± 0.11
303.15 K, 101.33 kPa, x1 = 0.8719	11.58 ± 0.12
303.15 K, 101.33 kPa, x1 = 0.941	12.69 ± 0.13
303.15 K, 101.33 kPa, x2 = 0.0134	13.35 ± 0.14
308.15 K, 101.33 kPa, x1 = 0.0003	0.706 ± 0.01
308.15 K, 101.33 kPa, x1 = 0.0009	0.709 ± 0.01
308.15 K, 101.33 kPa, x1 = 0.0059	0.733 ± 0.01
308.15 K, 101.33 kPa, x1 = 0.01	0.752 ± 0.01
308.15 K, 101.33 kPa, x1 = 0.0136	0.774 ± 0.011
308.15 K, 101.33 kPa, x1 = 0.0616	1.044 ± 0.014
308.15 K, 101.33 kPa, x1 = 0.1054	1.326 ± 0.017
308.15 K, 101.33 kPa, x1 = 0.1634	1.756 ± 0.022
308.15 K, 101.33 kPa, x1 = 0.1935	2.016 ± 0.025
308.15 K, 101.33 kPa, x1 = 0.2969	2.919 ± 0.036
308.15 K, 101.33 kPa, x1 = 0.3955	3.905 ± 0.047
308.15 K, 101.33 kPa, x1 = 0.4982	5.004 ± 0.06
308.15 K, 101.33 kPa, x1 = 0.5873	6.04 ± 0.069
308.15 K, 101.33 kPa, x1 = 0.6734	7.077 ± 0.079
308.15 K, 101.33 kPa, x1 = 0.7944	8.555 ± 0.092
308.15 K, 101.33 kPa, x1 = 0.8719	9.501 ± 0.1
308.15 K, 101.33 kPa, x1 = 0.941	10.35 ± 0.11
308.15 K, 101.33 kPa, x2 = 0.2029	8.051 ± 0.17
308.15 K, 101.33 kPa, x2 = 0.3005	6.899 ± 0.15
308.15 K, 101.33 kPa, x2 = 0.3986	5.846 ± 0.13
308.15 K, 101.33 kPa, x2 = 0.5012	4.779 ± 0.11
308.15 K, 101.33 kPa, x2 = 0.5999	3.798 ± 0.088
308.15 K, 101.33 kPa, x2 = 0.6987	2.866 ± 0.067
308.15 K, 101.33 kPa, x2 = 0.8008	1.998 ± 0.048
308.15 K, 101.33 kPa, x2 = 0.8947	1.315 ± 0.033
313.15 K, 101.3 kPa, x1 = 0.031	0.8 ± 0.02
313.15 K, 101.3 kPa, x1 = 0.068	1.04 ± 0.03
313.15 K, 101.3 kPa, x1 = 0.11	1.08 ± 0.03
313.15 K, 101.3 kPa, x1 = 0.14	1.46 ± 0.04
313.15 K, 101.3 kPa, x1 = 0.16	1.61 ± 0.04
313.15 K, 101.3 kPa, x1 = 0.19	1.8 ± 0.05
313.15 K, 101.3 kPa, x1 = 0.22	2.04 ± 0.05
313.15 K, 101.3 kPa, x1 = 0.3	2.54 ± 0.07
313.15 K, 101.3 kPa, x1 = 0.4	3.4 ± 0.09
313.15 K, 101.3 kPa, x1 = 0.54	4.58 ± 0.12
313.15 K, 101.3 kPa, x1 = 0.72	6.53 ± 0.17
323.15 K, 101.3 kPa, x1 = 0.031	0.67 ± 0.02
323.15 K, 101.3 kPa, x1 = 0.068	0.82 ± 0.02
323.15 K, 101.3 kPa, x1 = 0.11	0.9 ± 0.02
323.15 K, 101.3 kPa, x1 = 0.14	1.21 ± 0.03
323.15 K, 101.3 kPa, x1 = 0.16	1.3 ± 0.03
323.15 K, 101.3 kPa, x1 = 0.19	1.44 ± 0.04
323.15 K, 101.3 kPa, x1 = 0.22	1.62 ± 0.04
323.15 K, 101.3 kPa, x1 = 0.26	1.81 ± 0.05
323.15 K, 101.3 kPa, x1 = 0.3	1.97 ± 0.05
323.15 K, 101.3 kPa, x1 = 0.4	2.59 ± 0.07
323.15 K, 101.3 kPa, x1 = 0.54	3.46 ± 0.09
323.15 K, 101.3 kPa, x1 = 0.72	4.83 ± 0.13
